In article PMC5578090, “Biological Evaluation of Uridine Derivatives of 2-Deoxy Sugars as Potential Antiviral Compounds against Influenza A Virus” (International Journal of Molecular Sciences, 2017):
“Also recorded” adds a separate entry of the source. Read-outs that look alike come from different tables or passages of the source.

Experiments:
[1] = system: influenza virus A/ostrich/Denmark/725/96 (H5N2); test: microbe, parasite or virus in culture; assay type: cell-based; settings: for IC50: H5N2, MDCK
in vitro = settings: dog
influenza virus = settings: previously reported; read-out: IC50, anti-influenza virus activity in vitro; cited from earlier work
[2] = system: HA protein of pandemic human influenza A/H1N1 virus; assay type: cell-based
[3] = system: influenza virus A/ostrich/Denmark/725/96 (H5N2); assay type: cell-based
[4] = system: influenza virus A/ostrich/Denmark/725/96 (H5N2); assay type: cell-based; remark: listed apart in the source
[5] = 72 h, read-out: IC50 (compound concentration required to inhibit virus plaque production by 50%)
[6] = read-out: p[IC50] = −log[IC50] (converted)

With CC(=O)O[C@H]1[C@H](C)O[C@H](OC[C@H]2O[C@@H](n3ccc(=O)[nH]c3=O)[C@@H]3OC(C)(C)O[C@@H]32)C[C@@H]1O[Si](C)(C)C(C)(C)C [Compound 1] the “SI (selectivity index, ratio of CC50 to IC50)” value [1] was 1.10, the IC50 [1, 5] was 175 ± 8.22 µM and the IC50 [1, 6] was 174 µM. The CC50 (in vitro) was 193 µM.
With CC1(C)O[C@@H]2[C@H](O1)[C@@H](CO[C@@H]1C[C@@H](OCc3ccccc3)[C@H](OCc3ccccc3)[C@@H](CO)O1)O[C@H]2n1ccc(=O)n(C(=O)c2ccccc2)c1=O [IW7, reference compound] the “SI (selectivity index, ratio of CC50 to IC50)” value [1] was 1.95, the IC50 [1, 5] was 63 ± 4.17 µM and the CC50 (in vitro) was 123 µM. For the same compound, the IC50 (influenza virus) was 63 µM.
In the case of CC(=O)O[C@H]1[C@H](C)O[C@H](OC[C@H]2O[C@@H](n3ccc(=O)n(C(=O)c4ccccc4)c3=O)[C@@H]3OC(C)(C)O[C@@H]32)C[C@@H]1O[Si](C)(C)C(C)(C)C [Compound 2], the “Mature form of HA protein” value [2] is reported as “not detected”, the “Yield of HA protein in infected cells” value [2] is reported as “reduced the formation of HA glycoprotein in a dose-dependent manner; also recorded: reduced by compound 2 in a dose-dependent manner; also recorded: dose-dependent decrease of HA glycoprotein production” and the “Average size and plaque number” value [1] is reported as “markedly reduced in a dose-dependent manner”. For the same compound, the “SI (selectivity index, ratio of CC50 to IC50)” value [1] was 5.27, the IC50 [1, 5] was 82 ± 6.81 µM and the IC50 [1, 6] was 81.3 µM. For the same compound, the CC50 (in vitro) was 432 µM, the “Reduction of virus-induced cytopathic effect (antiviral activity)” value (“Reduction” below) [3] was “significantly reduced the CPE” and the “Inhibition of virus propagation depending on time of addition” value [4] was “inhibited the propagation of influenza virus only when it is added to the cells after viral infection”.
CCC(CC)O[C@@H]1C=C(C(=O)O)C[C@H](N)[C@H]1NC(C)=O [Oseltamivir carboxylate, reference compound] showed an IC50 [1, 5] of roughly 0.15 µM and a CC50 (in vitro) greater than 100 µM.
With CC(=O)OC[C@H]1OC(OC[C@H]2O[C@@H](n3ccc(=O)[nH]c3=O)[C@@H]3OC(C)(C)O[C@@H]32)C[C@@H](OC(C)=O)[C@@H]1OC(C)=O (some centres unmarked) [Compound 6] the “SI (selectivity index, ratio of CC50 to IC50)” value [1] was 1.08, the IC50 [1, 5] was 575 ± 17.2 µM and the IC50 [1, 6] was 575 µM. For the same compound, the CC50 (in vitro) was 620 µM.
In the case of CC1(C)O[C@@H]2[C@H](O1)[C@@H](CO[C@@H]1C[C@@H](OCc3ccccc3)[C@H](OCc3ccccc3)[C@@H](CO[Si](C)(C)C(C)(C)C)O1)O[C@H]2n1ccc(=O)[nH]c1=O [Compound 5], the “SI (selectivity index, ratio of CC50 to IC50)” value [1] is reported as 1.56, the IC50 [1, 5] is reported as 96 ± 7.64 µM and the IC50 [1, 6] is reported as 97.7 µM. It also gave a CC50 (in vitro) of 150 µM.
For CC1(C)O[C@@H]2[C@H](O1)[C@@H](CO[C@@H]1C[C@@H](OCc3ccccc3)[C@H](OCc3ccccc3)[C@@H](COCc3ccccc3)O1)O[C@H]2n1ccc(=O)[nH]c1=O [Compound 3], the “SI (selectivity index, ratio of CC50 to IC50)” value [1] was 4.07, the IC50 [1, 5] was 100 ± 9.84 µM and the IC50 [1, 6] was 100 µM. The CC50 (in vitro) was 407 µM and the “Reduction” value [3] was “significantly reduced the CPE”.
In the case of CC1(C)O[C@@H]2[C@H](O1)[C@@H](CO[C@@H]1C[C@@H](OCc3ccccc3)[C@H](OCc3ccccc3)[C@@H](COCc3ccccc3)O1)O[C@H]2n1ccc(=O)n(C(=O)c2ccccc2)c1=O [Compound 4], the “SI (selectivity index, ratio of CC50 to IC50)” value [1] is reported as 4.85, the IC50 [1, 5] is reported as 99 ± 5.23 µM and the IC50 [1, 6] is reported as 100 µM. The CC50 (in vitro) was 480 µM and the “Reduction” value [3] was “significantly reduced the CPE”.
With CC1(C)O[C@@H]2[C@H](O1)[C@@H](CO[C@@H]1C[C@@H](OCc3ccccc3)[C@H](OCc3ccccc3)[C@@H](CO[Si](C)(C)C(C)(C)C)O1)O[C@H]2n1ccc(=O)n(C(=O)c2ccccc2)c1=O [IW3, reference compound] the “SI (selectivity index, ratio of CC50 to IC50)” value [1] was 8.89, the IC50 [1, 5] was 72 ± 5.2 µM and the CC50 (in vitro) was 640 µM. The IC50 (influenza virus) was 72 µM.
For CC1(C)O[C@@H]2[C@H](O1)[C@@H](CO[C@@H]1C[C@@H](O)[C@H](O)[C@@H](CO)O1)O[C@H]2n1ccc(=O)n(Cc2ccccc2)c1=O [Compound 8], the “SI (selectivity index, ratio of CC50 to IC50)” value [1] was 1.93, the IC50 [1, 5] was 346 ± 10.5 µM and the IC50 [1, 6] was 347 µM. For the same compound, the CC50 (in vitro) was 669 µM and the “Cytotoxicity (in words)” value (MDCK cells) was “low”.
In the case of O=c1ccn([C@@H]2O[C@H](CO[C@@H]3C[C@@H](O)[C@H](O)[C@@H](CO)O3)[C@@H](O)[C@H]2O)c(=O)[nH]1 [Compound 9], the “SI (selectivity index, ratio of CC50 to IC50)” value [1] is reported as 1.95, the IC50 [1, 5] is reported as 410 ± 11.2 µM and the IC50 [1, 6] is reported as 407 µM. The CC50 (in vitro) was 800 µM and the “Cytotoxicity (in words)” value (MDCK cells) was “low”.
With CC1(C)O[C@@H]2[C@H](O1)[C@@H](CO[C@@H]1C[C@@H](O)[C@H](O)[C@@H](CO)O1)O[C@H]2n1ccc(=O)[nH]c1=O [Compound 7] the “SI (selectivity index, ratio of CC50 to IC50)” value [1] was 1.15, the IC50 [1, 5] was 721 ± 23.2 µM and the IC50 [1, 6] was 724 µM. For the same compound, the CC50 (in vitro) was 828 µM and the “Cytotoxicity (in words)” value (MDCK cells) was “low”.
